1 molecule from patent publication US9034868B2 (priority 2008, dated 2015) can be followed below.

The structures appear in SMILES notation. Entries after “also recorded” stand apart in the source; their conditions may differ.

For series [1], the system named is StxB. In kind it is cell-based, human.
The test system of series [2] is StxB. In kind it is cell-based. To be noted: 20 μM, 30 min, 37° C.
In another series the test system is transferrin (Tf). The class given is cell-based. To be noted: 20 μM, 30 min, 37° C.
In a further series the test system is CI-MPR. The class given is cell-based, human.
For series [3], the system named is StxB. In kind it is cell-based. To be noted: 20 μM, 45 min at 37° C.
Series [4] has as its system StxB. In kind it is cell-based, human. This is another data set of the same source.
Series [5] has as its system StxB. The class given is cell-based.
In the next series the test system is 125I-EGF. In kind it is cell-based, human.
The next series has as its system CTxB. In kind it is cell-based. To be noted: 20 μM.
The test system of a further series is TGN46. In kind it is cell-based, human.
In series [6] the test system is vesicular stomatitis virus G protein (VSVG). The class given is cell-based, human.

On to `CCC(=O)N1CC(=O)Nc2ccc(Br)cc2C1c1ccccc1` (stereo not drawn) [Compound 193, 7-bromo-5-phenyl-4-propionyl-4,5-dihydro-1H-benzo[e][1,4]diazepin-2(3H)-one], for which, in the series with StxB [1], the “amount of bound StxB on cells” value was “not reduced”. The apparent side effects entry with THP1-cells is reported as “did not cause any apparent side effects”. Besides, the “endocytosis of StxB” value in the series with StxB [2] was “not altered”. Also, the “endocytosis of transferrin (Tf)” value in the series on transferrin (Tf) was “not altered”. Further, the “steady-state localization of CI-MPR” value in the series with CI-MPR was “similar”. The “cellular localisation of STxB” value with StxB [3] is listed as “accumulation”. For the same molecule, the “retrograde transport of StxB to the TGN” value in the series with StxB [4] is recorded as “stark reduction”. Moreover, in the series on StxB [5], the “reduction of retrograde transport of STxB to the TGN” value was determined as 90% and the “reduction of transport of StxB to the TGN, 4 h after internalization” value came to 50%. The “effect on lysosomal degradation of 125I-EGF” value in the series on 125I-EGF is recorded as “no effect”. Moreover, the “cellular localisation of CtxB” value with CTxB was “accumulation”. Moreover, the “inhibition of Stx cytotoxicity” value in the series with Stx1 and Stx2 came out at 100 fold. In addition, the “steady-state localization and transport of TGN46” value with TGN46 is reported as “similar; also recorded: not been observed a distinct inhibition; also recorded: did not observe a pronounced effect; also recorded: do not impact distinctly”. Also, in the series with HeLa-cells, the “effect on protein biosynthesis” value is listed as “only minor”. In addition, the “anterograde transport of GFP-VSVGts045” value in [6] is listed as “not significantly reduced”.
